Measured values taken from publication PMC12138593, “Synthesis, Crystal Design and Anticancer Potential of Novel Cu(II), Ni(II), and Pd(II) Complexes with Carbazate Ligand” (ACS Omega, 2025).

Experiments:
MCF-7 = assay: MTT cytotoxicity assay, MCF-7 breast cancer cells; assay type: cell-based, human; conditions: IC50 ± SD
Procedure: (§1) Human cell lines A549 (lung cancer, ATCC No. CCL-185), MRC-5 (nontumoral lung, ATCC No. CCL-171), MCF-7 (breast cancer, ATCC No. HTB-22), and A2780cis (cisplatin-resistant ovarian cancer, ECACC No. 93112517) were used to evaluate the cytotoxic activity of the metal complexes. The A549 and MRC-5 cell lines were cultured in DMEM (Dulbecco’s Modified Eagle’s Medium), while the MCF-7 and A2780cis cell lines were maintained in RPMI-1640 (Roswell Park Memorial Institute) medium. Both media were supplemented with 10% fetal bovine serum (FBS), penicillin (100 U/mL), streptomycin ([…]), and L-glutamine (2 mM). The cells were grown in monolayers using disposable 25 cm^2 flasks and incubated at 37 °C in a 5% CO2 atmosphere.
(§2) The cytotoxicity of the compounds was determined using the MTT colorimetric assay (3-(4,5-dimethylthiazol-2-yl)-2,5-diphenyl tetrazolium bromide), as described by Mosmann. The cells were trypsinized for counting and concentration adjustment and then seeded in 96-well plates (1.5 × 10^4 cells/well). The plates were incubated at 37 °C in a 5% CO2 atmosphere for 24 h to allow cell adhesion. […] Absorbance was measured at 570 nm using a Varioskan LUX Multimode Microplate Reader (VL000D0). […]

A549 = assay: MTT cytotoxicity assay, A549 lung cancer cells; assay type: cell-based, human; conditions: IC50 ± SD
Procedure: as §1, §2

A2780cis = assay: MTT cytotoxicity assay, A2780cis cisplatin-resistant ovarian cancer cells; assay type: cell-based, human; conditions: 48 h, IC50 ± SD
Procedure: as §1, §2

MRC-5 = assay: MTT cytotoxicity assay, MRC-5 noncancerous lung cells; assay type: cell-based, human; conditions: IC50 ± SD
Procedure: as §1, §2

[1] = Molar conductance in DMSO over 48 h; assay type: physicochemical; conditions: 10^-3 M in DMSO, room temperature
Procedure: DMSO solutions (10^–3 M) of the Hapmc and metal(II) complexes were subjected to molar conductance measurements at room temperature over 48 h, and the observed values are presented in Table S2.
The solvents and reagents were purchased from commercial sources and used without purification. The FT-IR spectra of the compounds were obtained from KBr pellets, using an FT-IR Varian 640 spectrometer in the range of 4000–400 cm^–1. Electrospray ionization mass spectrometry analysis (ESI-MS) was performed on an AB Sciex Triple TOF 5600+ mass spectrometer in positive mode, with a voltage of 5500 V and source temperature of 200 °C. ^1H nuclear magnetic resonance spectra were collected on a Varian Mercury Plus (600 MHz), with TMS as internal reference and DMSO-d 6 as solvent. Elemental analysis of CHN was performed with a PerkinElmer/Series II 2400 analyzer. Electronic spectra were obtained using a UV–vis–NIR Varian Cary 5000 spectrophotometer using 20 μM or 1 mM solutions prepared in methanol or DMF. The molar conductance of a 10^–3 M solution of ligand and metal complexes in DMSO was measured at room temperature using a Quimis Q405 M conduct meter.

SMILES: N.N.[Cl][Pt][Cl] [Cisplatin, reference compound]
- IC50 (MCF-7; 48 h): 14 µM
- IC50 (A549; 48 h): 11.5 µM
- IC50 (A2780cis): 37 µM
- IC50 (MRC-5; 48 h): 29.1 µM

SMILES: COC(=O)N/N=C(\C)c1ccccn1 [Hapmc, 2-acetylpyridine-methylcarbazate]
- IC50 (MCF-7; Homo sapiens, MCF7, 48 h): > 100 µM
- IC50 (A549; Homo sapiens, A549, 48 h): > 100 µM
- IC50 (A2780cis; Homo sapiens, A2780cis): > 100 µM
- IC50 (MRC-5; Homo sapiens, MRC5, 48 h): > 100 µM
- Molar conductivity, 0 hours ([1]; 0 hours): 1.90 Ω -1.cm2.mol-1
- Molar conductivity, 24 hours ([1]; 24 hours): 2.37 Ω -1.cm2.mol-1
- Molar conductivity, 48 hours ([1]; 48 hours): 2.48 Ω -1.cm2.mol-1
